Experimental findings from ChEMBL document CHEMBL4706768, “Discovery of Potent, Selective Triazolothiadiazole-Containing c-Met Inhibitors” (ACS Med Chem Lett, 2021) are described below.

The target of experiment [1] is Fibroblast growth factor receptor 3 (Homo sapiens) (UniProt P22607). Briefly: Inhibition of recombinant human N-terminal His6-tagged FGFR3 (447 to 761 residues) expressed in Sf21 insect cells at 2 uM using poly (Glu,Tyr) (4:1) as substrate relative to control.
Experiment [2] has as its target Cyclin-dependent kinase 5/CDK5 activator 1 (Homo sapiens) (UniProt Q00535+Q15078). In words: Inhibition of recombinant N-terminal His6-tagged human full-length CDK5/N-terminal GST-tagged full-length p35 expressed in baculovirus infected Sf21 insect cells at 2 uM using Histone H1 as substrate relative to control.
Experiment [3] has as its target Mitogen-activated protein kinase; ERK1/ERK2 (Homo sapiens) (UniProt P27361+P28482). In words: Inhibition of recombinant human full-length N-terminal GST-tagged MAPK1/ERK1 ([…]) expressed in Escherichia coli at 2 uM using MBP as substrate relative to control.
The nature of experiment [4]: Inhibition of GSK3 (unknown origin). More on the design: species or system Homo sapiens.

Some results are limits rather than exact numbers.

As usually defined, the inhibition is the drop in the measured response relative to a control, in per cent. As a reminder, the Ki is a dissociation constant, usually derived from enzyme kinetics or from competition with a known ligand. The low end stands for a stronger hold on the target, the high end for a looser hold on the target.

Chain of Mitogen-activated protein kinase; ERK1/ERK2 (Homo sapiens) (P27361 whole entry, looked up): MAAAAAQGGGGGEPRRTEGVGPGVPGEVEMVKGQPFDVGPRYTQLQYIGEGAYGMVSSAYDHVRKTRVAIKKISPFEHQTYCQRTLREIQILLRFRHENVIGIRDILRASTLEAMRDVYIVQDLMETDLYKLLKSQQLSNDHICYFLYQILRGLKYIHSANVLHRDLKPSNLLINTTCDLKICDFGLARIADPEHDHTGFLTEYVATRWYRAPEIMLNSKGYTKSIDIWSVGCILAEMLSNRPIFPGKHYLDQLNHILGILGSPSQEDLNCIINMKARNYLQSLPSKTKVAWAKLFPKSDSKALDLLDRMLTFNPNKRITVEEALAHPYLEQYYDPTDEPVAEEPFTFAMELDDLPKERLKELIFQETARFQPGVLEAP
Chain of Mitogen-activated protein kinase; ERK1/ERK2 (Homo sapiens) (P28482 whole entry, looked up): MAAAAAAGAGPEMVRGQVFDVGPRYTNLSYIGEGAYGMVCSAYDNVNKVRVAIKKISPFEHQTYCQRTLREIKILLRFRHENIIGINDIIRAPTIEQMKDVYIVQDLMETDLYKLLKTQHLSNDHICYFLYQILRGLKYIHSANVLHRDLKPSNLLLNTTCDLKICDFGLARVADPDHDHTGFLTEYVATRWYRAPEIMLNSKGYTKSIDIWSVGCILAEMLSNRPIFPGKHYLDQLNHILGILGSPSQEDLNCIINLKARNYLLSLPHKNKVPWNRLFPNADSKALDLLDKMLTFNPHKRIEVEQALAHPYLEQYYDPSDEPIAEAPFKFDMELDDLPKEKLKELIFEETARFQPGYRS
Chain of Fibroblast growth factor receptor 3 (Homo sapiens) (P22607 23-806 limits assumed): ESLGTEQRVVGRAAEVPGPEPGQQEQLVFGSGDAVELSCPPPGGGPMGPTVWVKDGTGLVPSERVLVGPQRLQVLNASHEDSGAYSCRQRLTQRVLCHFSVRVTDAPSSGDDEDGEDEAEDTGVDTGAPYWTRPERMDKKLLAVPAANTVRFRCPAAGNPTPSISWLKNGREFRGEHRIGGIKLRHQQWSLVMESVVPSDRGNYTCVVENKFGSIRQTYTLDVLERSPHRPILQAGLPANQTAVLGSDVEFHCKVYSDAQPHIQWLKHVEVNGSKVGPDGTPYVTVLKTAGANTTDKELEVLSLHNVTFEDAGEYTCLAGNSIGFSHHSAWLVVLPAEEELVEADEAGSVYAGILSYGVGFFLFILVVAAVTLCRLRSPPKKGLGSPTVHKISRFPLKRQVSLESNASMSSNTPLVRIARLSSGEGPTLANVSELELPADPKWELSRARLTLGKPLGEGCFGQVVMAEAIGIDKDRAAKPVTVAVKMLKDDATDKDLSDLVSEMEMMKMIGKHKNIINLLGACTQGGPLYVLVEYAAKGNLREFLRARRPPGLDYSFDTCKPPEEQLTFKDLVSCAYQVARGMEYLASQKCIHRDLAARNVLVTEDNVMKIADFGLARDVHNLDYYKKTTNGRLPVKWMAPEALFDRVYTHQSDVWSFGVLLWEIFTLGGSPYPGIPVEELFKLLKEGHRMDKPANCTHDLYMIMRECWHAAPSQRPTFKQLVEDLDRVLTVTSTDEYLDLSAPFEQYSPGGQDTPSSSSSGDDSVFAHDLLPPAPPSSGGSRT
Chain of Cyclin-dependent kinase 5/CDK5 activator 1 (Homo sapiens) (Q00535 whole entry): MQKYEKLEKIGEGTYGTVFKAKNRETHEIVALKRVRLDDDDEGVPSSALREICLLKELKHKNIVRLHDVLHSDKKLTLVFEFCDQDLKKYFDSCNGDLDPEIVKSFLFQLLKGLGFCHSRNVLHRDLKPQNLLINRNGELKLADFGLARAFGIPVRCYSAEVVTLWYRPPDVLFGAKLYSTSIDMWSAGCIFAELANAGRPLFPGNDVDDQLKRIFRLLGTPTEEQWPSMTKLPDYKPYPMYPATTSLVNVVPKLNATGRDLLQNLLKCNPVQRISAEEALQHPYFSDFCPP
Chain of Cyclin-dependent kinase 5/CDK5 activator 1 (Homo sapiens) (Q15078 99-307 partner limits assumed): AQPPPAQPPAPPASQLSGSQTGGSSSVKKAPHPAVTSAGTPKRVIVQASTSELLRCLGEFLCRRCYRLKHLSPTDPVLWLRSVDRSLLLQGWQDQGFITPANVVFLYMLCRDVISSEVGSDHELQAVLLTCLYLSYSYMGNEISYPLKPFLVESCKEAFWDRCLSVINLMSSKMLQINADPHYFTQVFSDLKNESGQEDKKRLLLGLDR

Turning to `C[C@@H](c1ccc2ncccc2c1)c1nnc2sc(-c3cnn(C)c3)nn12`, the inhibition in experiment [1], in experiment [2] and in experiment [3] was under 50% throughout. Also, in experiment [4], the Ki was over 4 µM.
